PubChem BioAssay (NCI)
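Method: 48-hour compound exposure of cells in 96-well plates, five concentrations, linear interpolation of endpoints. Abbreviation: GI50, concentration required for 50% inhibition of growth. TGI denotes the concentration required for complete inhibition of growth.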

Experiments:
Test in all cases: NCI-60 cell line screen, 48 h
CAKI-1 renal = tested on: CAKI-1 renal
COLO 205 colon = tested on: COLO 205 colon
EKVX NSCLC = tested on: EKVX NSCLC
IGROV1 ovarian = tested on: IGROV1 ovarian
K-562 leukemia = tested on: K-562 leukemia
NCI-H522 lung = tested on: NCI-H522 lung
OVCAR-5 ovarian = tested on: OVCAR-5 ovarian
SNB-19 CNS = tested on: SNB-19 CNS
SNB-75 CNS = tested on: SNB-75 CNS
SW-620 colon = tested on: SW-620 colon

Structure (SMILES) | GI50 (CAKI-1 renal) | TGI (CAKI-1 renal) | GI50 (COLO 205 colon) | TGI (COLO 205 colon) | GI50 (EKVX NSCLC) | TGI (EKVX NSCLC) | GI50 (IGROV1 ovarian) | TGI (IGROV1 ovarian) | GI50 (K-562 leukemia) | TGI (K-562 leukemia) | GI50 (NCI-H522 lung) | TGI (NCI-H522 lung) | GI50 (OVCAR-5 ovarian) | TGI (OVCAR-5 ovarian) | GI50 (SNB-19 CNS) | TGI (SNB-19 CNS) | GI50 (SNB-75 CNS) | TGI (SNB-75 CNS) | GI50 (SW-620 colon) | TGI (SW-620 colon)
C/C(CC(=O)NNc1ccc([N+](=O)[O-])cc1)=N\Nc1ccc([N+](=O)[O-])cc1 | 1.93 µM | 32.2 µM | 3.8 µM | > 100 µM | 22.4 µM | > 100 µM | 14.1 µM | > 100 µM | 0.622 µM | > 100 µM | 0.776 µM | 7.92 µM | 99.4 µM | > 100 µM | 29.7 µM | > 100 µM | 22.1 µM | 93.5 µM | 3.84 µM | > 100 µM
Cn1cccc1-c1cc(-c2cccs2)[nH]c(=O)c1C#N | > 100 µM | > 100 µM | > 100 µM | > 100 µM | 52.3 µM | > 100 µM | 23 µM | > 100 µM | > 100 µM | > 100 µM | 25.9 µM | > 100 µM | > 100 µM | > 100 µM | > 100 µM | > 100 µM | 37.7 µM | > 100 µM | > 100 µM | > 100 µM
COC(=O)C(C(=O)C(=O)NC1=C(Cl)C(=O)c2ccccc2C1=O)c1csc(-n2nc(-c3ccccc3)cc2-c2ccccc2)n1 (configuration not stated) | – | > 100 µM | – | > 100 µM | – | > 100 µM | – | > 100 µM | – | > 100 µM | – | > 100 µM | – | > 100 µM | – | > 100 µM | – | 9.4 µM | – | > 100 µM
Cc1cc(C)c(O)c(Cc2cccc(Cc3cc(C)cc(C)c3O)c2O)c1 | – | > 100 µM | – | > 100 µM | – | > 100 µM | – | > 100 µM | – | > 100 µM | – | > 100 µM | – | > 100 µM | – | > 100 µM | – | > 100 µM | – | > 100 µM
COC(=O)N/N=C(/CCN1CCCC1)CC(c1ccccc1)c1c(O)c2ccccc2oc1=O (configuration not stated) | – | > 100 µM | – | > 100 µM | – | > 100 µM | – | > 100 µM | – | > 100 µM | – | > 100 µM | – | > 100 µM | – | > 100 µM | – | > 100 µM | – | > 100 µM
O=C1C(=O)c2ccccc2-c2ccccc21 | 1.75 µM | 3.34 µM | 2.02 µM | 4.28 µM | 1.81 µM | 3.25 µM | 2.07 µM | 3.75 µM | 1.01 µM | 4.02 µM | 1.75 µM | 4.12 µM | 1.75 µM | 3.52 µM | 1.45 µM | 2.95 µM | 1.51 µM | 2.9 µM | 2.06 µM | 4.78 µM
N/C(=N\N=C\c1cccs1)NO | – | > 100 µM | – | > 100 µM | – | > 100 µM | – | > 100 µM | – | > 100 µM | – | > 100 µM | – | > 100 µM | – | > 100 µM | – | > 100 µM | – | > 100 µM
O=[N+]([O-])c1cc(CCl)ccc1CCl | – | 2.76 µM | – | 3.19 µM | – | 3.38 µM | – | 2.92 µM | – | 7.49 µM | – | 3.98 µM | – | 6.18 µM | – | 3.8 µM | – | 6.88 µM | – | 4.54 µM
COc1cc(-c2cc(=O)c3ccccc3o2)ccc1N | – | 77.5 µM | – | > 100 µM | – | > 100 µM | – | > 100 µM | – | > 100 µM | – | > 100 µM | – | > 100 µM | – | > 100 µM | – | 83.2 µM | – | > 100 µM
O=c1cc(-c2ccc(Cl)cc2)[nH]c2ncccc12 | – | > 100 µM | – | 83 µM | – | > 100 µM | – | > 100 µM | – | 76.1 µM | – | > 100 µM | – | > 100 µM | – | > 100 µM | – | > 100 µM | – | > 100 µM
Clc1cc(Cl)c(Cl)c(-c2nc(-c3cccnc3)cs2)c1 | 7.43 µM | 78.7 µM | 13.6 µM | 41.4 µM | 40.2 µM | > 100 µM | 32.8 µM | > 100 µM | > 100 µM | > 100 µM | 9.22 µM | 38.3 µM | 32.3 µM | 92.8 µM | 66.2 µM | > 100 µM | 23 µM | 80.6 µM | 9.34 µM | 23.6 µM
CCOC(=O)/C(=C/c1ccc([N+](=O)[O-])cc1)C(=O)c1ccccc1 | 2.56 µM | 7.13 µM | 1.95 µM | 3.89 µM | 4.88 µM | 17.4 µM | 2.53 µM | 7.4 µM | 3.5 µM | 28.7 µM | 1.7 µM | 3.51 µM | 2.55 µM | 6.93 µM | 2.4 µM | 5.81 µM | 1.72 µM | 4.22 µM | 2.14 µM | 4.84 µM
CC1(C)OC(C(N)=O)=C(C(N)=O)O1 | – | > 100 µM | – | > 100 µM | – | > 100 µM | – | > 100 µM | – | > 100 µM | – | > 100 µM | – | > 100 µM | – | > 100 µM | – | > 100 µM | – | > 100 µM
CN(C)C(=O)/N=c1\ss/c(=N\C(=S)N(C)C)n1-c1ccccc1 | 2.76 µM | > 100 µM | 0.306 µM | > 100 µM | – | > 100 µM | – | > 100 µM | – | > 56.1 µM | – | 8.12 µM | – | > 100 µM | – | > 100 µM | – | 71.1 µM | – | > 100 µM
Cc1ccc([N+](=O)[O-])cc1NC(=O)C(=O)Cc1occc(=O)c1O | – | > 100 µM | – | > 100 µM | – | > 100 µM | – | > 100 µM | – | > 100 µM | – | > 100 µM | – | > 100 µM | – | > 100 µM | – | > 100 µM | – | > 100 µM
O=C(/C=C\c1cccc2ccccc12)c1cccs1 | – | 22.7 µM | – | 29.3 µM | – | 25.9 µM | – | 23.3 µM | – | 8.79 µM | – | 8.49 µM | – | 32.8 µM | – | 25.3 µM | – | 61.3 µM | – | 2.99 µM
CCC(C)OC(=O)C1C2CCC(O2)C1C(=O)O (configuration not stated) | – | > 100 µM | – | > 60.1 µM | – | > 100 µM | – | > 100 µM | – | > 100 µM | – | > 100 µM | – | > 100 µM | – | > 100 µM | – | > 100 µM | – | > 32.1 µM
Oc1ccc(CNCc2ccccc2)c2cccnc12 | – | > 100 µM | – | > 72 µM | – | > 100 µM | – | > 100 µM | – | > 100 µM | – | > 100 µM | – | 99.2 µM | – | > 100 µM | – | 0.229 µM | – | > 100 µM
